According to US20240059703A1 (AMGEN INC., priority 2021, published 2024):

Experiments:
KRAS G12C = KRAS G12C (Homo sapiens (Human), UniProt P01116, C118A/G12C); test: 2 h coupled exchange assay; type: biochemical; conditions: Avg 2 h Coupled exchange IC50, 2 h compound pre-incubation
Procedure: The term “2 h coupled exchange assay” or “20 h coupled exchange assay” as used herein refers to the assay described in the Section entitled “BIOLOGICAL EVALUATION.”

[1] = system: MIA PaCa-2 (human pancreatic carcinoma) cells; test: Cell Viability Assay (CellTiter-Glo), MIA PaCa-2; type: cell-based; conditions: Homo sapiens, MIA PaCa-2, 72 h
Procedure: Serially-diluted compound or DMSO was added to the cells, and plates were incubated at 37° C., 5% CO2 for 72 h. Cell viability was measured using a CellTiter-Glo® Luminescent Cell Viability Assay kit (Promega) according to the manufacturer's protocol. The luminescence signal of treated samples was normalized to DMSO control, and data were analyzed using a 4-parameter logistic model to calculate IC50 values.

[2] = system: A549 (human lung carcinoma) cells; test: Cell Viability Assay (CellTiter-Glo), A549; type: cell-based; conditions: Homo sapiens, A549, 72 h
Summary of the method: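 RPMI 1640/10% FBS; seed 1.67E+04 cells/mL, o/n 37° C., 5% CO2; serial-dilution cmpd 72 h; CellTiter-Glo luminescence vs DMSO; 4-parameter logistic fit → IC50.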

KRAS G12C, sequence (P01116 other isoform, or with tags, fused parts or gaps G12C/C118A): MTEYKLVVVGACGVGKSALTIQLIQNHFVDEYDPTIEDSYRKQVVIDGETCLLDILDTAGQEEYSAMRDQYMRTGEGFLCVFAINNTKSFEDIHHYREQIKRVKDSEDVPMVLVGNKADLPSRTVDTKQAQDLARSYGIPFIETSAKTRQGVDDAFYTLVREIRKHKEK

Structure (SMILES)	IC50 (KRAS G12C) [nM]	IC50 [1] [nM]	IC50 [2] [nM]
C=CC(=O)N1CC2(CCN(c3nc4c(c(-c5cc(O)ccc5Cl)c3C#N)C3CCC4N(C(C)C)C3)C2)C1 (stereo not drawn) [Example 21-26]	334	337	18400
C=CC(=O)N1CC2(CCN(c3nc4c(c(-c5ccc(F)cc5F)c3C#N)CCN(C(C)C)C4)C2)C1 [Example 21-27, 4-(2,4-difluorophenyl)-7-(2-propanyl)-2-(2-(2-propenoyl)-2,6-diazaspiro[3.4]octan-6-yl)-5,6,7,8-tetrahydro-1,7-naphthyridine-3-carbonitrile]	918	2990	16500
C=CC(=O)N1CC2(CCN(c3nc4c(c(-c5cc(O)ccc5Cl)c3C#N)CCN(C[C@@H]3CCCN3C)C4)C2)C1 [Example 21-28, 4-(2-chloro-5-hydroxyphenyl)-7-(((2S)-1-methyl-2-pyrrolidinyl)methyl)-2-(2-(2-propenoyl)-2,6-diazaspiro[3.4]octan-6-yl)-5,6,7,8-tetrahydro-1,7-naphthyridine-3-carbonitrile]	473	314	> 25000
C=CC(=O)N1CC2(CCN(c3nc4c(c(-c5ccccc5F)c3C#N)CCN(CC3CCCN3C)C4)C2)C1 [Example 21-29, 4-(2-fluorophenyl)-7-(((2R)-1-methyl-2-pyrrolidinyl)methyl)-2-(2-(2-propenoyl)-2,6-diazaspiro[3.4]octan-6-yl)-5,6,7,8-tetrahydro-1,7-naphthyridine-3-carbonitrile 4-(2-fluorophenyl)-7-(((2S)-1-methyl-2-pyrrolidinyl)methyl)-2-(2-(2-propenoyl)-2,6-diazaspiro[3.4]octan-6-yl)-5,6,7,8-tetrahydro-1,7-naphthyridine-3-carbonitrile]	822	4410	> 25000
C=CC(=O)N1CC2(CCN(c3nc4c(c(-c5ccccc5F)c3C#N)CCN(C3CCCN(C)C3)C4)C2)C1 [Example 21-30, 4-(2-fluorophenyl)-7-((3R)-1-methyl-3-piperidinyl)-2-(2-(2-propenoyl)-2,6-diazaspiro[3.4]octan-6-yl)-5,6,7,8-tetrahydro-1,7-naphthyridine-3-carbonitrile 4-(2-fluorophenyl)-7-((3S)-1-methyl-3-piperidinyl)-2-(2-(2-propenoyl)-2,6-diazaspiro[3.4]octan-6-yl)-5,6,7,8-tetrahydro-1,7-naphthyridine-3-carbonitrile]	211	2090	15400
Cc1ncsc1N1CCc2c(nc(N3CCC4(CN(C(=O)/C=C/CN(C)C)C4)C3)c(C#N)c2-c2ccccc2F)C1 [Example 21-31, 2-(2-((2E)-4-(dimethylamino)-2-butenoyl)-2,6-diazaspiro[3.4]octan-6-yl)-4-(2-fluorophenyl)-7-(4-methyl-1,3-thiazol-5-yl)-5,6,7,8-tetrahydro-1,7-naphthyridine-3-carbonitrile]	641	738	> 5000
C=CC(=O)N1CC2(CCN(c3nc4c(c(-c5ccc(F)cc5F)c3C#N)CCN(C3CCCN(C)C3)C4)C2)C1 [Example 21-32, 4-(2,4-difluorophenyl)-7-((3R)-1-methyl-3-piperidinyl)-2-(2-(2-propenoyl)-2,6-diazaspiro[3.4]octan-6-yl)-5,6,7,8-tetrahydro-1,7-naphthyridine-3-carbonitrile|4-(2,4-difluorophenyl)-7-((3S)-1-methyl-3-piperidinyl)-2-(2-(2-propenoyl)-2,6-diazaspiro[3.4]octan-6-yl)-5,6,7,8-tetrahydro-1,7-naphthyridine-3-carbonitrile]	355	1450	8220
C=CC(=O)N1CC2(CCN(c3nc4c(c(-c5ccccc5F)c3C#N)CCN(C[C@@H]3CCC(=O)N3)C4)C2)C1 [Example 21-33, 4-(2-fluorophenyl)-7-(((2S)-5-oxo-2-pyrrolidinyl)methyl)-2-(2-(2-propenoyl)-2,6-diazaspiro[3.4]octan-6-yl)-5,6,7,8-tetrahydro-1,7-naphthyridine-3-carbonitrile]	957	5520	16100
C=CC(=O)N1CC2(CCN(c3nc4c(c(-c5ccccc5F)c3C#N)CCN(C(=O)[C@@H]3CCCN3C)C4)C2)C1 [Example 21-34, 4-(2-fluorophenyl)-7-(1-methyl-L-prolyl)-2-(2-(2-propenoyl)-2,6-diazaspiro[3.4]octan-6-yl)-5,6,7,8-tetrahydro-1,7-naphthyridine-3-carbonitrile]	911	6290	> 25000
C=CC(=O)N1CC2(CCN(c3nc4c(c(-c5cc(O)ccc5Cl)c3C#N)CCN(C3CCCN(C)C3)C4)C2)C1 [Example 21-36, 4-(2-chloro-5-hydroxyphenyl)-7-((3R)-1-methyl-3-piperidinyl)-2-(2-(2-propenoyl)-2,6-diazaspiro[3.4]octan-6-yl)-5,6,7,8-tetrahydro-1,7-naphthyridine-3-carbonitrile 4-(2-chloro-5-hydroxyphenyl)-7-((3S)-1-methyl-3-piperidinyl)-2-(2-(2-propenoyl)-2,6-diazaspiro[3.4]octan-6-yl)-5,6,7,8-tetrahydro-1,7-naphthyridine-3-carbonitrile]	167	174	> 5000
C=CC(=O)N1CC2(CCN(c3nc4c(c(-c5ccccc5F)c3C#N)CCN(C3CC3)C4)C2)C1 [Example 21-37, 7-cyclopropyl-4-(2-fluorophenyl)-2-(2-(2-propenoyl)-2,6-diazaspiro[3.4]octan-6-yl)-5,6,7,8-tetrahydro-1,7-naphthyridine-3-carbonitrile]	90	461	> 5000
C=CC(=O)N1CC2(CCN(c3nc4c(c(-c5ccccc5F)c3C#N)CCN(C(C)CN(C)C)C4)C2)C1 [Example 21-38, 7-((2R)-1-(dimethylamino)-2-propanyl)-4-(2-fluorophenyl)-2-(2-(2-propenoyl)-2,6-diazaspiro[3.4]octan-6-yl)-5,6,7,8-tetrahydro-1,7-naphthyridine-3-carbonitrile 7-((2S)-1-(dimethylamino)-2-propanyl)-4-(2-fluorophenyl)-2-(2-(2-propenoyl)-2,6-diazaspiro[3.4]octan-6-yl)-5,6,7,8-tetrahydro-1,7-naphthyridine-3-carbonitrile]	178	196	> 5000
C=CC(=O)N1CC2(CCN(c3nc4c(c(-c5ccccc5F)c3C#N)CCN(CCCOC)C4)C2)C1 [Example 21-39, 4-(2-fluorophenyl)-7-(3-methoxypropyl)-2-(2-(2-propenoyl)-2,6-diazaspiro[3.4]octan-6-yl)-5,6,7,8-tetrahydro-1,7-naphthyridine-3-carbonitrile]	1120	7180	17600
C=CC(=O)N1CC2(CCN(c3nc4c(c(-c5cc(O)ccc5Cl)n3)CCC(c3scnc3C)C4)C2)C1 [Example 22-4, 1-(6-((7R)-4-(2-chloro-5-hydroxyphenyl)-7-(4-methyl-1,3-thiazol-5-yl)-5,6,7,8-tetrahydro-2-quinazolinyl)-2,6-diazaspiro[3.4]octan-2-yl)-2-propen-1-one| 1-(6-((7S)-4-(2-chloro-5-hydroxyphenyl)-7-(4-methyl-1,3-thiazol-5-yl)-5,6,7,8-tetrahydro-2-quinazolinyl)-2,6-diazaspiro[3.4]octan-2-yl)-2-propen-1-one]	222	> 5000	> 5000
